According to patent publication US7449114B2, “Halogenated solvent remediation” (SRP Technologies, Inc., priority 2000, dated 2008):

What was measured:
[1] = Surface tension of electron donor solutions, pendant drop method; format: physicochemical; conditions: for change in surface tension: 0% ethyl lactate
Description: (§1) Based on the field results presented in Example 1, laboratory studies were performed to confirm that the enhanced bioavailability of TCE observed in the field was due to co-solvent or surfactant behavior resulting from the use of high concentrations of sodium lactate. Two fundamental properties used to screen the co-solvent or surfactant properties of a solution are surface tension and interfacial tension. Surface tension measures the force per unit length along the interface between a liquid and air due to its tension. When a co-solvent or surfactant is present in an aqueous liquid at increasing concentrations, the surface tension of that liquid decreases. Interfacial tension is similar to surface tension except that it measures the force per unit length along the interface between two liquid phases arising from the surface free energy. The higher the interfacial tension between two liquids, the less likely one is to dissolve into the other, and the more difficult it is for one to be transported within the other. […]
The laboratory study performed to confirm the co-solvent properties of the high concentration electron donor solution measured the surface tension of electron donor solutions at various concentrations. Next, interfacial tensions between the same electron donor solutions and nonaqueous phase TCE were measured. […] Surface and interfacial tension measurements were made using the pendant drop method (M. J. Rosen, ed., Structure/Performance Relationships in Surfactants, American Chemical Society, Washington D.C. 329 (1984); R. D. Bagnall & P. A. Arundel, The Profile Area of Pendant Drops, 82 J. Phys. Chem. 898 (1978)) coupled with real-time video imaging (M. D. Herd et al., Interfacial Tensions of Microbial Surfactants Determined by Real-Time Video Imaging of Pendant Drops, Proceedings paper number SPE/DOE 24206 513-519, SPE/DOE Eighth Symposium on Enhanced Oil Recovery, Tulsa, Okla. (1992)). […]

[2] = Interfacial tension between electron donor solutions and nonaqueous phase TCE, pendant drop method; format: physicochemical; conditions: 0% ethyl lactate
Description: as §1
The laboratory study performed to confirm the co-solvent properties of the high concentration electron donor solution measured the surface tension of electron donor solutions at various concentrations. Next, interfacial tensions between the same electron donor solutions and nonaqueous phase TCE were measured. […]

[3] = test system: chlorinated ethenes (PCE, TCE) in groundwater; experiment: Biostimulation pilot test, IR Site 40, Seal Beach (Example 4)
Description: A biostimulation pilot-test program for in situ anaerobic bioremediation of chlorinated ethenes in groundwater was conducted at Installation Restoration (IR) Program Site 40, Naval Weapons Station Seal Beach, Calif. IR Site 40 includes a concrete pit in a locomotive shop building and a gravel area north of and adjacent to the building. Oil and solvents spilled during locomotive maintenance collected in the pit and discharged to the gravel area via a drainpipe (FIG. 11). Groundwater was contaminated with chlorinated solvents, primarily PCE and trichloroethene (TCE). The plume extends over 100 meters (m) downgradient of the source area and is generally limited in extent to approximately 20 m below ground surface. The groundwater gradient is relatively flat and is influenced by tidal fluctuations. The net gradient direction is southeasterly. The Seal Beach National Wildlife Refuge lies downgradient of the site.
The tests were conducted in the area interpreted to have the highest PCE concentrations in groundwater. The tests were conducted over an 8-month period from August 2001 through mid-March 2002. Approximately 210,000 liters (55,500 gallons) of 3 percent sodium lactate solution was injected. A direct injection system was selected over recirculation to avoid reinjection of untreated water into the test cell. A 60 percent sodium lactate solution (JRW Technologies, Lenexa, Kans.) was diluted to 3 percent with potable water using a proportional injector (Dosatron International, Bordeaux, France). Lactate was injected at an average rate of approximately 3,550 gallons per week for the first 2 months. The average injection rate was then adjusted to approximately 750 gallons per week to maintain optimum electron-donor concentrations. No clogging or fouling effects were observed over the course of the pilot test. Water level measurements were performed during injection to assess the induced gradient.
Effects were monitored in seven wells in the pilot-test area. Two wells are located crossgradient and five downgradient of the injection well at distances ranging from approximately 2 to 30 m. Pretest groundwater samples were collected to establish baseline conditions. Weekly groundwater samples were collected during and analyzed on-site using field test kits for sulfate, ferrous iron, alkalinity, chemical oxygen demand (COD) (Hach, Loveland, Colo.), nitrate, and carbon dioxide (CHEMetrics, Calverton, Va.) and direct reading instrumentation for pH, temperature, conductivity, oxidation-reduction potential, and dissolved oxygen (YSI, Yellow Springs, Ohio). Monthly groundwater samples were analyzed off-site for volatile organic compounds, alkalinity, COD, anions, cations, total dissolved solids (Columbia Analytical Services, Kelso, Wash.), and dissolved gases (Performance Analytical, Simi Valley, Calif.). Samples were periodically analyzed for organic acids (Idaho National Engineering and Environmental Laboratory [INEEL], Idaho Falls, Id.), phospholipid fatty acids (Microbial Insights, Rockford, Tenn.), and DNA typing using quantitative polymerase chain reaction (PCR) and terminal restriction fragment length polymorphisms (T-RFLP) analyses (University of California, Berkeley, Calif.), according to methods well known in the art.

[4] = test system: chloroethenes (primarily TCE) in ground water; experiment: Field evaluation of enhanced in situ bioremediation, Test Area North (Example 1); conditions: all wells receiving significant lactate concentrations
Description: A 1-year field evaluation of enhanced in situ bioremediation was performed at Test Area North (“TAN”) of the Idaho National Engineering and Environmental Laboratory. […] The locations of a 5,000 μg/L TCE isopleth (14); 1,000 μg/L TCE isopleth (16); 100 μg/L TCE isopleth (18); and 5 μg/L TCE isopleth (20) are shown by solid lines. FIG. 2 illustrates a cross section of this site, showing the surface of the ground (22), an approximately 63-m (210-feet) fractured basalt unsaturation zone (24) (not drawn to scale), an approximately 60-m (200-feet) fractured basalt aquifer (26), and an impermeable clay interbed (28). […]
The initial electron donor addition strategy involved continuous injection of potable water at 37.85 liters/minute (10 gpm) into Well TSF-05. […] It was determined that the continuous injection of clean water at 37.85 liters/minute (10 gpm) overwhelmed the flux of contaminants from the secondary source. […] This was intended to prevent significant quantities of electron donor from collecting in the injection well and to help prevent biofouling. […]
Eleven monitoring wells (i.e., TAN-D2, TAN-9, TAN-10A, TAN-25, TAN-26, TAN-27, TAN-28, TAN-29, TAN-30A, TAN-31, and TAN-37) were sampled biweekly and analyzed for electron donors, biological activity indicators, competing inorganic electron acceptors and their reduced products, chloroethenes, ethene, pH, temperature, and specific conductivity.

[5] = test system: PCE/TCE plume in ground water; experiment: Sodium lactate injection pilot test, Tennessee Air National Guard Site, Memphis (Example 3); conditions: after 8 months and 4 lactate injections
Description: Site Background. A site-wide Remedial Investigation (RI) identified a chlorinated solvent plume in a sandy aquifer approximately 35 to 60 feet (10.7 to 18.3 m) below ground surface at the 164th Airlift Wing at the Tennessee Air National Guard Site, Memphis, Tenn. The plume area targeted for treatment was over 2 acres (0.81 hectares). This unconfined saturated interval is overlain by an inorganic loess vadose zone and is separated from the deeper regional aquifer by a clay unit. PCE concentrations ranged from 5 to 1,000 μg/L in the target area, while TCE ranged from 100 to greater than 15,000 μg/L in the injection/monitoring wells. […] A pilot test of a sodium lactate injection system to enhance natural reductive dechlorination in the groundwater was approved by the Tennessee Department of Environment and Conservation, the Memphis and Shelby County Health Department, and the Shelby County Ground Water Control Board.
System Design. A three-dimensional model to simulate groundwater flow was developed using the MODFLOW simulator (U.S. Geological Survey). Once calibrated, model simulations were used to determine the optimal injection well locations, as well as the rate and duration of injection. Based on the results of other sodium lactate injection sites, a period of 60 days between injections was assumed. The optimal configuration was determined to be a 9-well injection system at an injection rate of 10 gallons per minute (gpm; 37.8 liters/minute) for 5 days.
Potable water was mixed with 60% sodium lactate to create a 1% solution. An existing 8-inch (20.3-cm) water line was tapped and connected to the distribution control header via a 4-inch (10.2-cm) line, which was housed in a portable 12-ft×14-ft (3.6-m×4.3-m) building. A double-check valve assembly was installed on the 4-inch (10.2-cm)water line to prevent back-siphoning of the injection solution into the 8-inch (20.3-cm) potable water line. Following a mixing zone with the potable water, the resulting 1% solution was delivered to the nine injection wells. […]

effect on the solution's surface tension ([1]; 1% and 10% ethyl lactate added to sodium lactate solutions) | Compound | interfacial tension as % of the value at 0.1% sodium lactate ([2]; sodium lactate 30%) [%] | decrease of interfacial tension ([2]; sodium lactate increased from 0.1 to 3%) | change in surface tension ([1]; sodium lactate 0.01 to 7%) | change in surface tension ([1]; sodium lactate increased to 30 and 60%) | increase of PCE concentrations ([3]; at least one well, following injection) | reductive dechlorination of PCE and TCE ([3]; by the third month) | biomass (phospholipid fatty acid analysis) ([3]; close to the injection well) | radius of influence within which PCE was converted to DCE ([3]; crossgradient) | radius of influence within which PCE was converted to DCE ([3]; downgradient) [m] | reductive dechlorination of TCE to ethene [4] | TCE concentrations ([5]; 10 of 15 wells) | TCE concentration ([5]; well 03-010MW, pre-lactate around 5,690) | TCE concentration ([5]; well 03-020MW, pre-lactate around 4,600) [µg/L]
pronounced effect | CCOC(=O)C(C)O (centres unmarked) [ethyl lactate] | – | – | – | – | – | – | – | – | – | – | – | – | –
– | CC(O)C(=O)[O-].[Na+] (centres unmarked) [sodium lactate] | 47 | about 26% | almost no change | dramatic decrease | greater than fifteen-fold | dramatically transformed to cis-1,2-DCE | increased up to an order of magnitude | approximately 6 m | ~8 | Enhanced reductive dechlorination of TCE to ethene was observed | below detectable levels and/or the maximum contaminant level (MCL) | approximately 50 μg/L | ~130
